In ChEMBL document CHEMBL3856229, “Hybrid Antibiotic Overcomes Resistance in P. aeruginosa by Enhancing Outer Membrane Penetration and Reducing Efflux” (J Med Chem, 2016):
≈ marks a conversion by molar mass, not a printed value.

Assays:
Type in all cases: functional
[1] = test system: Pseudomonas aeruginosa; assay: Antibacterial activity against multidrug/extremely drug-resistant/colistin-susceptible Pseudomonas aeruginosa isolate 259-96918
[2] = test system: Pseudomonas aeruginosa; assay: Antibacterial activity against Pseudomonas aeruginosa PAO1
[3] = test system: Pseudomonas aeruginosa; assay: Antibacterial activity against multidrug/extremely drug-resistant/colistin-susceptible Pseudomonas aeruginosa isolate 101885
[4] = test system: Enterococcus faecium; assay: Antibacterial activity against Enterococcus faecium ATCC 27270 after 24 hrs by microtitre broth dilution method; conditions: ATCC 27270, 24 h
[5] = test system: Escherichia coli; assay: Antibacterial activity against amikacin-resistant Escherichia coli isolate CAN-ICU 63074 after 24 hrs by microtitre broth dilution method; conditions: isolate CAN-ICU 63074, 24 h
[6] = test system: Pseudomonas aeruginosa; assay: Antibacterial activity against multidrug-resistant/tobramycin-susceptible Pseudomonas aeruginosa isolate 83182
[7] = test system: Escherichia coli; assay: Antibacterial activity against Escherichia coli ATCC 25922 after 24 hrs by microtitre broth dilution method; conditions: ATCC 25922, 24 h
[8] = test system: Pseudomonas aeruginosa; assay: Antibacterial activity against pandrug-resistant Pseudomonas aeruginosa isolate 91433
[9] = test system: Escherichia coli; assay: Antibacterial activity against gentamicin/tobramycin/ciprofloxacin-resistant Escherichia coli isolate CANWARD-2011 97615 harboring AAC3-2A after 24 hrs by microtitre broth dilution method; conditions: isolate CANWARD-2011 97615, 24 h
[10] = test system: Pseudomonas aeruginosa; assay: Antibacterial activity against multidrug-resistant/tobramycin-susceptible Pseudomonas aeruginosa isolate 86053
[11] = test system: Pseudomonas aeruginosa; assay: Antibacterial activity against gentamicin/tobramycin-resistant Pseudomonas aeruginosa isolate CANWARD-2011 96846 after 24 hrs by microtitre broth dilution method; conditions: isolate CANWARD-2011 96846, 24 h
[12] = test system: Streptococcus pneumoniae; assay: Antibacterial activity against Streptococcus pneumoniae ATCC 49619 after 24 hrs by microtitre broth dilution method; conditions: ATCC 49619, 24 h
[13] = test system: Acinetobacter baumannii; assay: Antibacterial activity against Acinetobacter baumannii isolate CAN-ICU 63169 after 24 hrs by microtitre broth dilution method; conditions: isolate CAN-ICU 63169, 24 h
[14] = test system: Escherichia coli; assay: Antibacterial activity against gentamicin-resistant Escherichia coli isolate CAN-ICU 61714 after 24 hrs by microtitre broth dilution method; conditions: isolate CAN-ICU 61714, 24 h
[15] = test system: Pseudomonas aeruginosa; assay: Antibacterial activity against multidrug/extremely drug-resistant/colistin-susceptible Pseudomonas aeruginosa isolate 260-97103
[16] = test system: Klebsiella pneumoniae; assay: Antibacterial activity against Klebsiella pneumoniae ATCC 13883 after 24 hrs by microtitre broth dilution method; conditions: ATCC 13883, 24 h
[17] = test system: Staphylococcus aureus; assay: Antibacterial activity against methicillin-resistant Staphylococcus aureus ATCC 33592 after 24 hrs by microtitre broth dilution method; conditions: ATCC 33592, 24 h
[18] = test system: Pseudomonas aeruginosa; assay: Antibacterial activity against multidrug-resistant/tobramycin-susceptible Pseudomonas aeruginosa isolate 86052
[19] = test system: Pseudomonas aeruginosa; assay: Antibacterial activity against Pseudomonas aeruginosa ATCC 27853 after 24 hrs by microtitre broth dilution method; conditions: ATCC 27853, 24 h
[20] = test system: Pseudomonas aeruginosa; assay: Antibacterial activity against multidrug-resistant/tobramycin-susceptible Pseudomonas aeruginosa isolate 86067
[21] = test system: Pseudomonas aeruginosa; assay: Antibacterial activity against multidrug/extremely drug-resistant/colistin-susceptible Pseudomonas aeruginosa isolate 262-101856
[22] = test system: Staphylococcus aureus; assay: Antibacterial activity against Staphylococcus aureus ATCC 29213 after 24 hrs by microtitre broth dilution method; conditions: ATCC 29213, 24 h
[23] = test system: Enterococcus faecalis; assay: Antibacterial activity against Enterococcus faecalis ATCC 29212 after 24 hrs by microtitre broth dilution method; conditions: ATCC 29212, 24 h
[24] = test system: Stenotrophomonas maltophilia; assay: Antibacterial activity against Stenotrophomonas maltophilia isolate CAN-ICU 62584 after 24 hrs by microtitre broth dilution method; conditions: isolate CAN-ICU 62584, 24 h
[25] = test system: Pseudomonas aeruginosa; assay: Antibacterial activity against multidrug/extremely drug-resistant/colistin-susceptible Pseudomonas aeruginosa isolate 100036
[26] = test system: Staphylococcus epidermidis; assay: Antibacterial activity against methicillin-susceptible Staphylococcus epidermidis isolate CANWARD-2008 81388 after 24 hrs by microtitre broth dilution method; conditions: isolate CANWARD-2008 81388, 24 h
[27] = test system: Pseudomonas aeruginosa; assay: Antibacterial activity against multidrug/extremely drug-resistant/colistin-susceptible Pseudomonas aeruginosa isolate 264-104354
[28] = test system: Pseudomonas aeruginosa; assay: Antibacterial activity against multidrug-resistant/tobramycin-susceptible Pseudomonas aeruginosa isolate 86079
[29] = test system: Staphylococcus epidermidis; assay: Antibacterial activity against methicillin-resistant Staphylococcus epidermidis isolate CAN-ICU 61589 after 24 hrs by microtitre broth dilution method; conditions: isolate CAN-ICU 61589, 24 h
[30] = test system: Pseudomonas aeruginosa; assay: Antibacterial activity against pandrug-resistant Pseudomonas aeruginosa isolate 101243
[31] = test system: Pseudomonas aeruginosa; assay: Antibacterial activity against multidrug-resistant/tobramycin-susceptible Pseudomonas aeruginosa isolate 79199
[32] = test system: Pseudomonas aeruginosa; assay: Antibacterial activity against multidrug-resistant/tobramycin-susceptible Pseudomonas aeruginosa isolate 84745
[33] = test system: Pseudomonas aeruginosa; assay: Antibacterial activity against multidrug-resistant/tobramycin-susceptible Pseudomonas aeruginosa isolate 85322
[34] = test system: Pseudomonas aeruginosa; assay: Antibacterial activity against multidrug-resistant/tobramycin-susceptible Pseudomonas aeruginosa isolate 108590
[35] = test system: Pseudomonas aeruginosa; assay: Antibacterial activity against multidrug-resistant/tobramycin-susceptible Pseudomonas aeruginosa isolate 86141
[36] = test system: Pseudomonas aeruginosa; assay: Antibacterial activity against multidrug-resistant/tobramycin-susceptible Pseudomonas aeruginosa isolate 92014
[37] = test system: Pseudomonas aeruginosa; assay: Antibacterial activity against multidrug-resistant/tobramycin-susceptible Pseudomonas aeruginosa isolate 80621
[38] = test system: Pseudomonas aeruginosa; assay: Induction of cytoplasmic membrane depolarization in Pseudomonas aeruginosa PAO1 by DiSC3(5) dye based fluorescence assay

Molecule	MIC [1] [µg/mL]	MIC [3] [µg/mL]	MIC [6] [µg/mL]	MIC [8] [µg/mL]	MIC [10] [µg/mL]	MIC [15] [µg/mL]	MIC [18] [µg/mL]	MIC [20] [µg/mL]	MIC [21] [µg/mL]	MIC [25] [µg/mL]	MIC [27] [µg/mL]	MIC [28] [µg/mL]	MIC [30] [µg/mL]	MIC [31] [µg/mL]	MIC [32] [µg/mL]	MIC [33] [µg/mL]	MIC [34] [µg/mL]	MIC [35] [µg/mL]	MIC [36] [µg/mL]	MIC [37] [µg/mL]	other results
O=C(O)c1cn(C2CC2)c2cc(N3CCNCC3)c(F)cc2c1=O [CIPROFLOXACIN]	256 (≈ 773 µM)	32 (≈ 96.6 µM)	4 (≈ 12.1 µM)	4 to 8 (≈ 12.1 to 24.1 µM)	> 16	16 to 64 (≈ 48.3 to 193 µM)	> 16	4 (≈ 12.1 µM)	16 to 32 (≈ 48.3 to 96.6 µM)	64 (≈ 193 µM)	16 to 32 (≈ 48.3 to 96.6 µM)	> 16	–	–	–	–	–	–	–	–	MIC [2]: < 0.2 µg/mL; MIC [4]: 8 µg/mL (≈ 24.1 µM); MIC [5]: ≤ 0.25 µg/mL; MIC [7]: ≤ 0.25 µg/mL; MIC [9]: 256 µg/mL (≈ 773 µM); MIC [11]: 4 µg/mL (≈ 12.1 µM); MIC [12]: 1 µg/mL (≈ 3.02 µM); MIC [13]: 2 µg/mL (≈ 6.04 µM); MIC [14]: ≤ 0.25 µg/mL; MIC [16]: ≤ 0.25 µg/mL; MIC [17]: ≤ 0.25 µg/mL; MIC [19]: 1 µg/mL (≈ 3.02 µM); MIC [22]: ≤ 0.25 µg/mL; MIC [23]: 1 µg/mL (≈ 3.02 µM); MIC [24]: 32 µg/mL (≈ 96.6 µM); MIC [26]: ≤ 0.25 µg/mL; MIC [29]: 128 µg/mL (≈ 386 µM)
C[C@@H](O)[C@H]1C(=O)N2C(C(=O)O)=C(S[C@@H]3CN[C@H](CNS(N)(=O)=O)C3)[C@H](C)[C@H]12 [DORIPENEM]	> 32	0.5 (≈ 1.19 µM)	–	8 (≈ 19 µM)	–	32 (≈ 76.1 µM)	–	–	8 (≈ 19 µM)	5 (≈ 11.9 µM)	16 (≈ 38 µM)	–	16 (≈ 38 µM)	–	–	–	–	–	–	–	–
C[C@H]1c2cccc(O)c2C(=O)C2=C(O)[C@]3(O)C(=O)C(C(N)=O)=C(O)[C@@H](N(C)C)[C@@H]3[C@@H](O)[C@@H]21.O [DOXYCYCLINE]	> 32	> 32	–	32	–	32	–	–	> 32	> 32	> 32	–	8	–	–	–	–	–	–	–	–
C[C@@H](O)[C@H]1C(=O)N2C(C(=O)O)=C(SCCNC=N)C[C@H]12 [IMIPENEM ANHYDROUS]	–	–	16 (≈ 53.4 µM)	–	16 (≈ 53.4 µM)	–	32 (≈ 107 µM)	> 32	–	–	–	16 (≈ 53.4 µM)	–	4 (≈ 13.4 µM)	16 (≈ 53.4 µM)	32 (≈ 107 µM)	32 (≈ 107 µM)	16 (≈ 53.4 µM)	8 (≈ 26.7 µM)	32 (≈ 107 µM)	–
C[C@@H](O)[C@H]1C(=O)N2C(C(=O)O)=C(S[C@@H]3CN[C@H](C(=O)N(C)C)C3)[C@H](C)[C@H]12 [MEROPENEM]	> 32	1 (≈ 2.61 µM)	16 (≈ 41.7 µM)	8 (≈ 20.9 µM)	> 32	16 (≈ 41.7 µM)	8 (≈ 20.9 µM)	> 32	32 (≈ 83.4 µM)	4 (≈ 10.4 µM)	> 32	32 (≈ 83.4 µM)	16 (≈ 41.7 µM)	16 (≈ 41.7 µM)	16 (≈ 41.7 µM)	16 (≈ 41.7 µM)	8 (≈ 20.9 µM)	16 (≈ 41.7 µM)	8 (≈ 20.9 µM)	16 (≈ 41.7 µM)	–
COLISTIN	1	1	1	4	1	1	1	0.5	2	2	1	1	1020	1	2	1	1	1	1	2	MIC [2]: 1 µg/mL; Activity [38]: Dose-dependent effect
GENTAMICIN	> 32	> 0.5	4	32	4	> 32	4	> 32	> 32	> 32	> 32	8	> 32	4	8	4	16	8	4	16	–
